Test results as given in article PMC9127750, “Structure-based design of CDC42 effector interaction inhibitors for the treatment of cancer” (Cell reports, 2022).
“And” between values parts separate entries of the source, which are not always exact repeats. Equal values may be shown once.

Tested on: WM3248 melanoma cells, 486 antibodies
Assay: Reverse phase protein arrays (RPPA)
Type: cell-based, Human
Source text: Pellets were snap frozen in liquid nitrogen and shipped to MD Anderson Cancer Center core RPPA facility for RPPA analysis (Table S5). Three biological replicates for each sample were generated.
Nomenclatures on the RPPA heatmaps: name_of_antibody.species_of_antibody.status_of_antibody. V - antibody validated; C - validation of antibody in progress; Q - antibody nonspecific; E – under evaluation; antibodies raised in M - mouse, G - goat, R - rabbit, or T - rat.

[1] = level 10 normalized to 0, mean of 3
[2] = level 10 normalized to 0, single replicates

**Q.** `CN(C)c1cccc(Nc2cc(-c3ccccc3)nc(C3CCNCC3)n2)c1` [ARN22089, N1,N1-dimethyl-N3-(6-phenyl-2-(piperidin-4-yl)pyrimidin-4-yl)benzene-1,3-diamine] was tested. Which “XIAP.R.C Norm_10 Average” value [1] did it give?
**A.** 0.978

**Q.** What about the “XPA.M.V Norm_10 Average” value [1] of the same compound?
**A.** 0.978

**Q.** And the “XPF.R.C Norm_10 Average” value [1]?
**A.** 0.977

**Q.** And the “YAP.R.C Norm_10 Average” value [1]?
**A.** 1.029

**Q.** What about the “YB1_pS102.R.V Norm_10 Average” value [1] of the same compound?
**A.** 0.937

**Q.** What about the “YES1.R.V Norm_10 Average” value [1] of the same compound?
**A.** 1.017

**Q.** What about the “YTHDF3.R.C Norm_10 Average” value [1] of the same compound?
**A.** 1.101

**Q.** What about the “ZAP.70.R.V Norm_10 Average” value [1] of the same compound?
**A.** 0.957

**Q.** What about the “ZEB1.R.V Norm_10 Average” value [1] of the same compound?
**A.** 0.964

**Q.** And the “TSC1.R.C Norm_10_1 to Norm_10_3” value [2]?
**A.** 0.905 and 0.842

**Q.** And the “TTF1.R.V Norm_10_1 to Norm_10_3” value [2]?
**A.** 1.022 and 0.970 and 1.241

**Q.** What about the “TUFM.R.V Norm_10_1 to Norm_10_3” value [2] of the same compound?
**A.** 0.423 and 1.882 and 1.360

**Q.** And the “Tuberin.R.V Norm_10_1 to Norm_10_3” value [2]?
**A.** 1.169 and 0.526 and 0.811

**Q.** And the “Tuberin_pT1462.R.V Norm_10_1 to Norm_10_3” value [2]?
**A.** 1.492 and 0.717 and 0.984

**Q.** And the “Twist.M.C Norm_10_1 to Norm_10_3” value [2]?
**A.** 1.114 and 1.030

**Q.** And the “Tyro3.R.V Norm_10_1 to Norm_10_3” value [2]?
**A.** 1.080 and 1.777 and 1.302

**Q.** And the “U.Histone.H2B.R.C Norm_10_1 to Norm_10_3” value [2]?
**A.** 0.871 and 0.726

**Q.** What about the “UBAC1.R.V Norm_10_1 to Norm_10_3” value [2] of the same compound?
**A.** 0.932 and 1.030 and 1.078

**Q.** What about the “UBQLN4.M.C Norm_10_1 to Norm_10_3” value [2] of the same compound?
**A.** 0.984 and 0.918 and 0.980

**Q.** What about the “UGT1A.M.V Norm_10_1 to Norm_10_3” value [2] of the same compound?
**A.** 1.017 and 1.128 and 1.006

**Q.** And the “ULK1_pS757.R.C Norm_10_1 to Norm_10_3” value [2]?
**A.** 1.125 and 0.823 and 0.899

**Q.** What about the “UQCRC2.M.C Norm_10_1 to Norm_10_3” value [2] of the same compound?
**A.** 0.945 and 1.144 and 1.246

**Q.** And the “UVRAG.R.C Norm_10_1 to Norm_10_3” value [2]?
**A.** 1.050 and 0.851 and 0.904

**Q.** What about the “VASP.R.V Norm_10_1 to Norm_10_3” value [2] of the same compound?
**A.** 0.815 and 0.894

**Q.** What about the “VAV1.R.C Norm_10_1 to Norm_10_3” value [2] of the same compound?
**A.** 1.035 and 0.844 and 0.890

**Q.** What about the “VEGFR.2.R.V Norm_10_1 to Norm_10_3” value [2] of the same compound?
**A.** 0.901 and 0.958 and 1.012

**Q.** And the “VEGFR.2_pY1175.R.C Norm_10_1 to Norm_10_3” value [2]?
**A.** 0.930 and 0.993

**Q.** And the “VHL.EPPK1.M.C Norm_10_1 to Norm_10_3” value [2]?
**A.** 0.587 and 1.522 and 0.982

**Q.** What about the “VHL.R.C Norm_10_1 to Norm_10_3” value [2] of the same compound?
**A.** 0.900 and 0.987

**Q.** What about the “Vinculin.M.V Norm_10_1 to Norm_10_3” value [2] of the same compound?
**A.** 0.829 and 1.085 and 1.051

**Q.** And the “WIPI1.R.C Norm_10_1 to Norm_10_3” value [2]?
**A.** 1.210 and 1.510 and 1.234

**Q.** And the “WIPI2.R.C Norm_10_1 to Norm_10_3” value [2]?
**A.** 1.209 and 0.707 and 0.915

**Q.** What about the “WTAP.R.V Norm_10_1 to Norm_10_3” value [2] of the same compound?
**A.** 0.900 and 1.764 and 1.008

**Q.** And the “Wee1.R.C Norm_10_1 to Norm_10_3” value [2]?
**A.** 0.851 and 0.833 and 1.061

**Q.** And the “Wee1_pS642.R.C Norm_10_1 to Norm_10_3” value [2]?
**A.** 0.901 and 0.776 and 1.023

**Q.** What about the “XBP.1.G.C Norm_10_1 to Norm_10_3” value [2] of the same compound?
**A.** 0.989 and 1.187 and 1.403

**Q.** And the “XIAP.R.C Norm_10_1 to Norm_10_3” value [2]?
**A.** 1.022 and 1.000

**Q.** And the “XPA.M.V Norm_10_1 to Norm_10_3” value [2]?
**A.** 1.064

**Q.** What about the “XPF.R.C Norm_10_1 to Norm_10_3” value [2] of the same compound?
**A.** 0.948 and 0.944

**Q.** What about the “XRCC1.R.C Norm_10_1 to Norm_10_3” value [2] of the same compound?
**A.** 0.931 and 1.213

**Q.** And the “YAP.R.C Norm_10_1 to Norm_10_3” value [2]?
**A.** 0.955 and 1.252 and 0.879

**Q.** And the “YAP_pS127.R.V Norm_10_1 to Norm_10_3” value [2]?
**A.** 0.913 and 1.139 and 0.796

**Q.** What about the “YB1_pS102.R.V Norm_10_1 to Norm_10_3” value [2] of the same compound?
**A.** 0.840 and 1.032

**Q.** And the “YES1.R.V Norm_10_1 to Norm_10_3” value [2]?
**A.** 1.000 and 0.982

**Q.** What about the “YTHDF2.R.V Norm_10_1 to Norm_10_3” value [2] of the same compound?
**A.** 1.206 and 1.258

**Q.** And the “YTHDF3.R.C Norm_10_1 to Norm_10_3” value [2]?
**A.** 1.009 and 1.186 and 1.108

**Q.** What about the “ZAP.70.R.V Norm_10_1 to Norm_10_3” value [2] of the same compound?
**A.** 1.012 and 0.977 and 0.883

**Q.** What about the “ZEB1.R.V Norm_10_1 to Norm_10_3” value [2] of the same compound?
**A.** 0.854 and 1.114 and 0.924

**Q.** What about the “HLA.DQA1.R.V Norm_10 Average” value (level 10 vs 0) of the same compound?
**A.** 0.993

**Q.** What about the “HLA.DR.DP.DQ.DX.R.C Norm_10 Average” value (level 10 vs 0) of the same compound?
**A.** 1.057

**Q.** What about the “HMHA1.R.V Norm_10 Average” value (level 10 vs 0) of the same compound?
**A.** 0.922

**Q.** What about the “HNRNPK.R.V Norm_10 Average” value (level 10 vs 0) of the same compound?
**A.** 1.030

**Q.** And the “HSP27.M.C Norm_10 Average” value (level 10 vs 0)?
**A.** 0.958

**Q.** And the “HSP27_pS82.R.V Norm_10 Average” value (level 10 vs 0)?
**A.** 0.916

**Q.** What about the “HSP60.R.V Norm_10 Average” value (level 10 vs 0) of the same compound?
**A.** 0.926

**Q.** What about the “HSP70.R.C Norm_10 Average” value (level 10 vs 0) of the same compound?
**A.** 0.973

**Q.** And the “Hexokinase.I.R.C Norm_10 Average” value (level 10 vs 0)?
**A.** 1.225

**Q.** What about the “Hexokinase.II.R.V Norm_10 Average” value (level 10 vs 0) of the same compound?
**A.** 1.128

**Q.** And the “Hif.1αR.C Norm_10 Average” value (level 10 vs 0)?
**A.** 1.156

**Q.** And the “Histone.H3.R.V Norm_10 Average” value (level 10 vs 0)?
**A.** 0.957

**Q.** And the “IDO.R.C Norm_10 Average” value (level 10 vs 0)?
**A.** 0.957

**Q.** And the “IGF1R_pY1135_Y1136.R.V Norm_10 Average” value (level 10 vs 0)?
**A.** 0.918

**Q.** And the “IGFBP2.R.V Norm_10 Average” value (level 10 vs 0)?
**A.** 0.935

**Q.** And the “IGFBP3.M.V Norm_10 Average” value (level 10 vs 0)?
**A.** 0.971

**Q.** What about the “IGFRb.R.C Norm_10 Average” value (level 10 vs 0) of the same compound?
**A.** 0.953

**Q.** What about the “IL.6.R.C Norm_10 Average” value (level 10 vs 0) of the same compound?
**A.** 0.924

**Q.** And the “IMP3.R.C Norm_10 Average” value (level 10 vs 0)?
**A.** 0.953

**Q.** And the “INPP4b.R.C Norm_10 Average” value (level 10 vs 0)?
**A.** 1.029

**Q.** What about the “IR.b.R.C Norm_10 Average” value (level 10 vs 0) of the same compound?
**A.** 0.981

**Q.** What about the “IRF.1.R.V Norm_10 Average” value (level 10 vs 0) of the same compound?
**A.** 0.874

**Q.** And the “IRF.3.R.V Norm_10 Average” value (level 10 vs 0)?
**A.** 0.967

**Q.** And the “IRS1.R.V Norm_10 Average” value (level 10 vs 0)?
**A.** 0.929

**Q.** And the “IRS2.R.C Norm_10 Average” value (level 10 vs 0)?
**A.** 1.033

**Q.** What about the “JAB1.M.C Norm_10 Average” value (level 10 vs 0) of the same compound?
**A.** 1.009

**Q.** What about the “JNK2.R.V Norm_10 Average” value (level 10 vs 0) of the same compound?
**A.** 2.307

**Q.** What about the “JNK_pT183_Y185.R.C Norm_10 Average” value (level 10 vs 0) of the same compound?
**A.** 0.955

**Q.** And the “Jagged1.R.V Norm_10 Average” value (level 10 vs 0)?
**A.** 0.936

**Q.** And the “Jak2.R.V Norm_10 Average” value (level 10 vs 0)?
**A.** 0.959

**Q.** What about the “KAP1.R.V Norm_10 Average” value (level 10 vs 0) of the same compound?
**A.** 1.103

**Q.** And the “KEAP1.R.V Norm_10 Average” value (level 10 vs 0)?
**A.** 1.017

**Q.** And the “LAD1.R.V Norm_10 Average” value (level 10 vs 0)?
**A.** 0.908

**Q.** What about the “LC3A.B.R.C Norm_10 Average” value (level 10 vs 0) of the same compound?
**A.** 1.064
